Data set [1] can be described thus: Inhibition of recombinant mouse GALK1 using ATP as substrate incubated for 1 hr and measured by Kinase-Glo assay. (In general: Kinase-Glo measures the ATP left after a reaction by luminescence.)
Data set [2] is described as follows: Binding affinity towards human GALK1 K252A/E253A double mutant measured by surface plasmon resonance (SPR) assay.
Data set [3] can be described thus: Inhibition of human GALK1 K252A/E253A double mutant. Particulars: read-out: IC50.
The species named for a further data set is Homo sapiens. Nature of the data set: Inhibition of human GALK1 K252A/E253A double mutant relative to control. On the set-up: concentration or dose not given beside the values. The conditions noted are these: concentration not given here.
Data set [4] is described as follows: Stability of compound in rat microsomes assessed as half-life. The format is ADME, Microsome.
Data set [5] can be described thus: Kinetic aqueous solubility of the compound. The class given is physicochemical. The conditions noted are these: buffer; read-out: Kinetic_solubility.
In the next data set the target is Galactokinase (Homo sapiens, UniProt P51570). Nature of the data set: Inhibition of recombinant human GALK1 using ATP as substrate incubated for 1 hr and measured by Kinase-Glo assay.
Sequence of Galactokinase (P51570 whole entry): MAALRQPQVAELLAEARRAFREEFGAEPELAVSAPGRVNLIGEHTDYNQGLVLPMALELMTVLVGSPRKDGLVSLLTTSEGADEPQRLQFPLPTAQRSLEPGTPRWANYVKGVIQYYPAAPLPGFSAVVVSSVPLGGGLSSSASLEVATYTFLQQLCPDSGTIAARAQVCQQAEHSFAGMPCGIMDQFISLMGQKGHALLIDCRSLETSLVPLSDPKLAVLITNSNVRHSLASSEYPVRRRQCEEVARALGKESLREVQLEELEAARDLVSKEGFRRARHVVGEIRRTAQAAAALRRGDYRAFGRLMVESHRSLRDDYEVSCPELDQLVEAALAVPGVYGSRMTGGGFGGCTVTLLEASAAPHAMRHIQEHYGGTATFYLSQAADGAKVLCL
Data set [6] in a line: Permeability of compound by PAMPA assay. The format is ADME. Particulars: read-out: permeability. On the technique in general: In PAMPA a lipid-coated filter parts donor from acceptor wells.
A further data set deals with Fibroblast. Nature of the data set: Inhibition of human GALK1 K252A/E253A double mutant in human skin fibroblasts at 10 uM assessed as reduction in Gal-1P accumulation. The format is cell-based.
Data set [7] in a line: Stability of compound in rat liver microsomes assessed as half-life. The format is ADME, Microsome. On the technique in general: Liver microsomes are a subcellular fraction often used to study metabolism.
The nature of data set [8]: Stability of compound in mouse liver microsomes assessed as half-life. The format is ADME, Microsome.
A short description of data set [9]: Stability of compound in human liver microsomes assessed as half-life. The class given is ADME, Microsome.

Converted amounts (≈) assume the structure as drawn.

For orientation: IC50 means the midpoint of a concentration-inhibition curve. One may read the Kd as the concentration at which binding is half-saturated. One may read the inhibition as how much of the control response was suppressed. The term half-life denotes the time needed for the level to fall by half in the phase considered. As to `CC1=C(C(=O)Nc2cc(C(=O)O)ccn2)C(c2ccccc2Cl)N=C(Nc2nc3cccc(N)c3o2)N1` (racemic), the IC50 in [1] (read-out: IC50) was 3430 nM; in [3], 77 nM. In [2], binding was put at a Kd of 12 nM. The same compound came in with an inhibition in the data set filed under Homo sapiens of 100%. Further, in data set [4], the half-life was greater than 30 min. In addition, in data set [5], the solubility kinetic was greater than 76 µg/mL.

Turning to `CCn1cc(C(C)NC(=O)C2=C(C)NC(Nc3nc4cccc(N)c4o3)=NC2c2ccc(C)cc2Cl)cn1` (configuration not stated), the values for the IC50 (in data set [1] (read-out: IC50); at Galactokinase (read-out: IC50)) were 1090 nM and 50 nM, respectively. Also, the half-life in data set [4] came to 17.9 min. Besides, the Papp in [6] was 333 ×10⁻⁶ cm/s. Further, the solubility kinetic in data set [5] was less than 1 µg/mL.

As for `CC1=C(C(=O)Nc2ccc(Cl)cc2)C(c2ccccc2Cl)N=C(Nc2nc3ccccc3o2)N1` (configuration not stated), the IC50 was 7690 nM in [1] (read-out: IC50) and “Not Active” on Galactokinase. Moreover, the half-life in data set [4] was greater than 30 min. In addition, the Papp in data set [6] was 2 ×10⁻⁶ cm/s. Further, the solubility kinetic in data set [5] is less than 1 µg/mL.

For `COc1ccc2oc(NC3=NC(c4ccccc4Cl)C(C(=O)Nc4nnc(-c5cccnc5)s4)=C(C)N3)nc2c1` (configuration not stated), the IC50 entry (in [1]; on Galactokinase) was “Not Active” each time. The half-life in data set [4] was greater than 30 min. The Papp in data set [6] is less than 19.1 ×10⁻⁶ cm/s. Also, the solubility kinetic in [5] was less than 1 µg/mL.

With `CC1=C(C(=O)NCc2cnn(C)c2)C(c2ccc(C)cc2Cl)N=C(Nc2nc3ccc(F)c(N)c3o2)N1` (configuration not stated), the IC50 came out at 690 nM in data set [1] (read-out: IC50) and 14 nM in data set [3]. Moreover, in the data set on Fibroblast, the inhibition was found to be 100%. Also, the half-life was found to be 17.1 min in data set [4], 16 min in data set [7] and 13 min in data set [8]. Moreover, in data set [5], the solubility kinetic turned out to be 1.27 µg/mL (≈ 2.43 µM). For the same compound, in data set [9], the t1/2 is given as 47 min.

As for `CC1=C(C(=O)Nc2cc(C(=O)O)ccn2)C(c2ccccc2Cl)N=C(Nc2nc3cccc(OC(F)(F)F)c3o2)N1` (configuration not stated), the values for the IC50 result (in [1]; on Galactokinase; in data set [3]) were “Not Active”, “Not Active” and greater than 15000 nM, respectively. For the same compound, the inhibition in the data set listed under Homo sapiens stood at 88%. Besides, the half-life in [4] was greater than 30 min. For the same compound, the Papp in data set [6] was less than 10 ×10⁻⁶ cm/s. In addition, the solubility kinetic in [5] was found to be 47.8 µg/mL (≈ 81.4 µM).

As for `CC1=C(C(=O)Nc2nnc(-c3cccnc3)s2)C(c2ccccc2Cl)N=C(Nc2nc3ccc(C)cc3o2)N1` (configuration not stated), the IC50 result (in [1]; on Galactokinase) was “Not Active” each time. The half-life in data set [4] was greater than 30 min. For the same compound, the Papp in data set [6] was less than 2.9 ×10⁻⁶ cm/s. Further, the solubility kinetic in data set [5] was less than 1 µg/mL.

With `CC1=C(C(=O)Nc2cccc(Br)c2)C(c2ccccc2Cl)N=C(Nc2nc3ccccc3o2)N1` (configuration not stated), the IC50 result (in data set [1]; on Galactokinase) was “Not Active” throughout. Further, the half-life in data set [4] was greater than 30 min. Also, the Papp in [6] is less than 1.8 ×10⁻⁶ cm/s. The solubility kinetic in data set [5] is less than 1 µg/mL.

Take `CC1=C(C(=O)Nc2cc(C(=O)O)ccn2)C(c2ccccc2Cl)N=C(Nc2nc3ccc(F)cc3o2)N1` (racemic): the figures for the IC50 in data set [1] (read-out: IC50) and in data set [3] were 4320 nM and 260 nM, respectively. Moreover, in [2], the dissociation constant Kd was 23 nM. For the same compound, the inhibition in the data set listed under Homo sapiens came to 100%. The half-life in [4] was greater than 30 min. The solubility kinetic in data set [5] stood at 46.1 µg/mL (≈ 88.5 µM).

For the compound `CC1=C(C(=O)Nc2cccc(Cl)c2)C(c2ccccc2Cl)N=C(Nc2nc3ccccc3o2)N1` (configuration not stated), the IC50 result (in [1]; on Galactokinase) was “Not Active” each time. Moreover, the half-life in [4] is greater than 30 min. For the same compound, the Papp in [6] was less than 9.2 ×10⁻⁶ cm/s. The solubility kinetic in data set [5] was less than 1 µg/mL.

For the compound `CCn1cc(CNC(=O)C2=C(C)NC(Nc3nc4ccc(F)c(N)c4o3)=NC2c2ccc(C)cc2Cl)cn1` (racemic), the half-maximal inhibitory concentration (IC50) in data set [1] (read-out: IC50) turned out to be 610 nM; in data set [3], 22 nM. Also, the inhibition in the data set on Fibroblast was found to be 70%. The half-life in data set [4] was 14.1 min. The solubility kinetic in [5] is less than 1 µg/mL.

The record behind these values is ChEMBL document CHEMBL5050861 (2021).
